Laboratory results from patent publication US5488110A, “Highly water soluble bis-naphthalimides useful as anticancer agents” (The Du Pont Merck Pharmaceutical Company, priority 1994, dated 1996).
In brackets after ≈: the same amount, converted by molar mass. Entries after “also recorded” stand apart in the source; their conditions may differ.

Experiments:
[1] = UV Method For Determining Water Solubility; format: physicochemical; settings: for solubility: water, room temperature, saturated solution standing over excess sample 15 to 20 hours, UV
Method: UV Method For Determining Water Solubility:
The ultraviolet spectrum is taken at room temperature of a saturated solution of the sample (saturated solution being defined as a water solution standing over excess sample for 15 to 20 hours with no heat being applied). A standard solution of the sample is obtained in water if possible. When the solubility in water is too low to do this (<1 mg/100 ml), a mg of the sample is dissolved in DMSO and diluted to 100 ml with water. Molar or gram extinction coefficients are calculated for the standard solutions and these values are used to determine the concentration of the saturated solution.

[2] = test system: murine leukemia L1210 cells; test: In vitro Growth Inhibitory Activity (MTT, 3 days); format: cell-based; settings: Mus musculus, 72 h, 3 days at 37° C., read-out: ID50 (the source's name)
Method: L1210 cells were maintained in RPMI=1640 a medium supplemented with 10% heat inactivated fetal bovine serum and […] (RPMI-L). B16 cells were maintained in RPMI-1640 medium supplemented with 15% heat inactivated fetal bovine serum and antiobiotics (RPMI-C).
Exponential growing murine leukemia L1210 cells (1×10^3 cells) in 0.1 mL medium were seeded on day 0 in a 96-well microtiter plate. On day 1, 0.1 mL aliquot of medium containing graded concentrations of test analogs was added to the initial volume. After incubation at 37° C. in a humidified incubator for 3 days, the plates were centrifuged briefly and 0.1 mL of the growth medium was removed. Cell cultures were incubated with 50 μL of 3-(4,5-dimethylthiazol-2-yl)-2,5- diphenyltetrazolium bromide (MTT; 1 mg/ml in Dulbecco's phosphate buffer saline) for 4 hours at 37° C. The resulting purple formazan precipitate was solubilized with 0.2 mL of 0.04N HCl in isopropyl alcohol. Absorbance was read in a Titertek Multiskan MCC scaning well spectrophotometer (Flow Laboratories) at a test wavelength of 570 nm and a reference wavelength of 630 nm.
The ID50 values were determined by a computer program that fit all of the data (8 determinations per concentration and 12 concentrations per test analog) to the following equation:
Y=((Am-Ao)/(1+(X/ID50)n))+Ao
where: Am=absorbance of the control cells; Ao=absorbance of the cells in the presence of highest drug concentration; Y=observed absorbance; X=drug concentration; ID50 =dose of drug that inhibits the growth of cells to one half that of the control cells.

DLD-2 human colon tumor = test: In Vivo Human Tumor Xenograft Model, DLD-2; set-up: species or system human (xenografted in nude mice); settings: nude mice, i.v. once daily for nine consecutive days; NCI criteria
Excerpt: (§1) The DLD-2 human colon tumor, MX-1 human mammary carcinoma, and LX-1 human lung tumor were originally obtained from a surgically removed primary colon carcinoma, breast tumor, and non-small lung carcinoma, respectively. The human tumor lines were maintained by serial passage in athymic nude mice. The MX-1 human mammary carcinoma and LX-1 human lung tumor are established tumors used by the NCI. The DLD-2, MX-1, and LX-1 tumor models have been well characterized.
The mice used in these experiments were outbred Swiss mice or BALB/c mice bearing the nude (nu/nu) gene. On day 0 male and female mice weighing 22-30 g are inoculated with 0.2 mL of a 25% tumor mince. This mince is prepared by mincing fresh tumor tissue, grown subcutaneously in passage mice, in sterile physiological saline. Palpable tumors weighing approximately 50 mg appear in the mice within 7-10 days after inoculation. The mice are pair matched by tumor weight and sex into groups of ten each and the test compounds and vehicle control are administered intravenously (i.v.) once daily for nine consecutive days. A >20% decrease in body weight on day 5 following compound administration is considered an indication of toxicity. Tumor measurements and body weights are recorded once a week. Fifteen to 18 days after the initial injection the mice are weighed, sacrificed and the tumors excised and weighed.
(§2) The efficacy of the test compounds is determined by the extent of tumor growth inhibition in treated versus vehicle-treated control mice. Initial tumor weights (mg) are calculated from the tumor dimensions (mm) measured from caliper measurements, using the formula for a prolate ellipsoid (mg of tumor weight=(length×width^2)/2). Net tumor weights are calculated for each of the treated groups and the vehicle-treated control group by subtracting the initial tumor weight from the final tumor weight on day 15. Results are expressed as a percentage decrease relative to the mean tumor weight for the control vehicle-treated group. [formula] Activity Criteria […]

MX-1 human breast tumor = test: In Vivo Human Tumor Xenograft Model, MX-1; set-up: species or system human (xenografted in nude mice); settings: nude mice, i.v. once daily for nine consecutive days; NCI criteria
Excerpt: as §1
(§3) The mice used in these experiments were outbred Swiss mice or BALB/c mice bearing the nude (nu/nu) gene. On day 0 male and female mice weighing 22-30 g are inoculated with 0.2 mL of a 25% tumor mince. […] Tumor measurements and body weights are recorded once a week. […]
as §2, with “group.” for “group. [formula] Activity Criteria”

LX-1 human lung tumor = test: In Vivo Human Tumor Xenograft Model, LX-1; set-up: species or system human (xenografted in nude mice); settings: nude mice, i.v. once daily for nine consecutive days; NCI criteria
Excerpt: as §1, §3
as §2, with “group.” for “group. [formula] Activity Criteria”

| Compound | water solubility (in words) ([1]; in words, relative to related compounds) | solubility [1] [µg/mL] | IC50 [2] [µg/mL] | activity against DLD-2 human colon tumor in vivo (tumor growth inhibition) (DLD-2 human colon tumor) | activity against MX-1 human breast tumor in vivo (tumor growth inhibition) (MX-1 human breast tumor) | activity against LX-1 human lung tumor in vivo (tumor growth inhibition) (LX-1 human lung tumor) |
| --- | --- | --- | --- | --- | --- | --- |
| CN(CCN(C)CCN1C(=O)c2cccc3cc([N+](=O)[O-])cc(c23)C1=O)CCN1C(=O)c2cccc3cc([N+](=O)[O-])cc(c23)C1=O [Example 1, 2,2'-[1,2-Ethanediylbis(methylimino-2,1-ethanediyl)]-bis[5-nitro-1H-benz[de]isoquinoline-1,3(2H)-dione]methanesulfonate (1:2)] | unexpected increased water solubility; also recorded: dramatic unexpected increase in water solubility | > 26400 | 0.0115 (≈ 0.0184 µM) | excellent to outstanding | good to excellent (inhibition of ≥90% is considered good to excellent activity) | – |
| CN(CCNCCN1C(=O)c2cccc3cc([N+](=O)[O-])cc(c23)C1=O)CCN1C(=O)c2cccc3cc([N+](=O)[O-])cc(c23)C1=O [Example 2, 2-[2-[N-methyl-N-[2-[[2-(5-nitro-1,2-dioxo-1H-benz[de]isoquinoline-2(3H)-yl)ethyl]amino]ethyl]amino]ethyl]-5-nitro-1H-benz[de]isoquinoline-1,3(2H)-dione methanesulfonate (1:2)] | – | 9600 | < 0.01 | excellent to outstanding | – | – |
| O=C1c2cccc3cc([N+](=O)[O-])cc(c23)C(=O)N1CCNCCNCCN1C(=O)c2cccc3cc([N+](=O)[O-])cc(c23)C1=O [Example 3, 2,2'-[1,2-Ethanediylbis(imino-2,1-ethanediyl)]-bis[5-nitro-1H-benz[de]isoquinoline-1,3(2H)-dione]methanesulfonate (1:2)] | – | 600 (≈ 1010 µM) | 0.009 (≈ 0.0151 µM) | excellent to outstanding | excellent to outstanding | moderate (Tumor growth inhibition of 58-89% in the DLD-2 assay is considered moderate activity) |
